Source: patent US20200253990A1, “ASPIRIN FORMULATION FOR INCREASED EFFICACY” (Vitalis LLC, priority 2013, published 2020)

Assays:
[1] = cited from earlier work
Healthy human patients = assay: Niacin flush rated on the Global Flush Severity Scale (GFSS), Example 1; assay type: in vivo; conditions: then 500 mg niacin
Method: Healthy human patients were recruited for this study. […] Each patient was asked to rate his or her flush on the Global Flush Severity Scale (GFSS) (see FIG. 1 and Paolini et al. Int. J. Clin. Pract. 62(6):896-904 (2008)), when the flush completely resolved. The Global Flushing Severity Score measures, overall, in the previous 24 hours, how each patient rates the flushing symptoms, including redness, warmth, tingling, and itchiness of the skin. […] After the flush completely resolved, then each patient recorded his or her GFSS flush rating. Not until at least two days later did Period III start. At Period III, each patient was asked to not swallow the orally administered aspirin (81 mg) but to allow the aspirin to be absorbed through the oral mucosa. The aspirin was in powdered form and the remaining aspirin in the mouth was washed out with water. […] Still, the flush was rated (GFSS) after it was resolved. […] The flush was then rated (GFSS) after it completely resolved.

[2] = system: Healthy human patients who experience non-specific headaches; assay: Headache rated on 10-point scale, aspirin alone, Example 5; assay type: in vivo; conditions: 30 minutes
Method: (§1) Healthy human patients who experience non-specific headaches were recruited for this study. […] Each patient was asked to rate his or her headache on the 10-point scale (see FIG. 3). The patient then swallowed 891 mg of aspirin (11 tablets of 81 mg each) without chewing. Each patient was asked to rate his or headache again on the 10-point scale 30-minutes later. […] The patient then chewed 891 mg of aspirin (11 tablets of 81 mg each) and rubbed the aspirin in their oral mucosa, lips, gums and mouth and was asked to be careful not to swallow any of the aspirin, but to wash out their mouth afterwards with a sip of soda and spitting out such that no aspirin was swallowed. Each patient was asked to rate his or headache again on the 10-point scale 30-minutes later. Not until at least two days later did Period III start. […] The patient then chewed 891 mg of aspirin (11 tablets of 81 mg each) and rubbed the aspirin in their oral mucosa, lips, gums and mouth for about 10 seconds or until half was dissolved, then to take a sip of soda to wash the rest, but this time to swallow the soda and aspirin such that half was swallowed. Each patient was asked to rate his or headache again on the 10-point scale 30-minutes later.

[3] = system: Healthy human patients who experience non-specific headaches; assay: Headache rated on 10-point scale, aspirin with acetaminophen and caffeine, Example 4; assay type: in vivo; conditions: 30 minutes
Method: as §1, with “486” for “891”, “(6” for “(11”, “chewing, immediately followed by swallowing a combination of pill 1000 mg acetaminophen and 130 mg caffeine.” for “chewing.”, “swallowed. This was immediately followed by the patient swallowing a combination pill of 1000 mg acetaminophen and 130 mg caffeine.” for “swallowed.”

[4] = Period II: 81 mg aspirin swallowed
[5] = Period IV: 81 mg aspirin half mucosally absorbed and half swallowed

Compound: CC(=O)Oc1ccccc1C(=O)O [aspirin, acetylsalicylic acid]
- time to peak of aspirin serum levels following administration ([1]; GI-absorbed aspirin): 15 to 20 min
- Global Flush Severity Scale (GFSS) average score (Healthy human patients; [4]): 6.88
- reduction of flush severity from Period I (Healthy human patients; [4]): 18%
- Global Flush Severity Scale (GFSS) average score (Healthy human patients; Period III: 81 mg aspirin mucosally absorbed (not swallowed)): 5.06
- reduction of flush severity from Period I (Healthy human patients; Period III: 81 mg aspirin mucosally absorbed): 40%
- Global Flush Severity Scale (GFSS) average score (Healthy human patients; [5]): 3.94
- reduction of flush severity from Period I (Healthy human patients; [5]): 53%
- decrease in headache ([2]; Period I: 891 mg aspirin swallowed): 53%
- decrease in headache ([2]; Period II: 891 mg aspirin chewed, oral mucosa only, none swallowed): 57%
- decrease in headache ([2]; Period III: 891 mg aspirin half dissolved in mouth, half swallowed): 86%
- decrease in headache ([3]; Period I: 486 mg aspirin swallowed + 1000 mg acetaminophen and 130 mg caffeine): 55%
- decrease in headache ([3]; Period II: 486 mg aspirin chewed, oral mucosa only, none swallowed + 1000 mg acetaminophen and 130 mg caffeine): 62%
- decrease in headache ([3]; Period III: 486 mg aspirin half dissolved in mouth, half swallowed + 1000 mg acetaminophen and 130 mg caffeine): 77%

Compound: O=C(O)c1ccccc1O [salicylic acid]
- time within which most of the elimination from the serum occurs ([1]; salicylic acid, metabolite of aspirin): ≤ 20 min
